Test results reported in ChEMBL document CHEMBL1144758, “Semisynthetic studies on the manzamine alkaloids” (J Nat Prod, 2008).
In brackets after ≈: the same amount, converted by molar mass. Activity calls are given as the source filed them. The calls are words filed in the database; no cut-off is given here.

How the values were obtained:
[1] = tested on: Mycobacterium tuberculosis; experiment: Antibacterial activity against Mycobacterium tuberculosis H37Rv by microplate alamar blue assay; assay type: functional; parameters: Activity: concentration or dose not given beside the values; conditions: for MIC: Mycobacterium tuberculosis, H37Rv
[2] = Antiinflammatory activity in Escherichia coli lipopolysaccharide-activated rat neonatal microglia assessed as inhibition of eicosanoid thromboxane B2; assay type: functional, cell-based
Microglia [3] = experiment: Antiinflammatory activity in Escherichia coli lipopolysaccharide-activated rat neonatal microglia assessed as inhibition of oxygen radical; assay type: functional, cell-based
P388 = experiment: Cytotoxicity against mouse P388 cells; assay type: functional, cell-based
Microglia [4] = experiment: Antiinflammatory activity in Escherichia coli lipopolysaccharide-activated rat neonatal microglia assessed as inhibition of oxygen radical at 30 uM; assay type: functional
Microglia [5] = experiment: Antiinflammatory activity in Escherichia coli lipopolysaccharide-activated rat neonatal microglia assessed as inhibition of eicosanoid thromboxane B2 at 30 uM; assay type: functional, cell-based
[6] = tested on: Mycobacterium tuberculosis; experiment: Antibacterial activity against Mycobacterium tuberculosis H37Rv at 0.5 ug/mL by microplate alamar blue assay; assay type: functional

Compound	Activity [1] [%]	MIC [1] [µg/mL]	IC50 [2] [µM]	Activity (Microglia [3])	IC50 (P388) [µg/mL]	Activity (Microglia [4])	Activity (Microglia [5])	Activity [6] [%]
Oc1cccc2c1[nH]c1c(C3=C[C@]4(O)CC/C=C\CCCCN5CC[C@H]3[C@@]3(C[C@H]6/C=C\CCCCN6[C@@H]34)C5)nccc12 [ENT-8-HYDROXYMENZAMINE A]	95	< 12.5	0.25	inactive	0.25 (≈ 0.443 µM)			
CC(=O)Oc1cccc2c1[nH]c1c([C@@H]3C=C4CC/C=C\CCCCN5CC[C@H]3[C@]3(C5)C(C(C)=O)=C5/C=C\CCCCN5[C@H]43)nccc12	95	< 12.5				inactive	inactive	
Oc1cccc2c1[nH]c1c(C3=C[C@]4(O)CC/C=C\CCCCN5CC[C@H]3[C@@]3(C[C@H]6CC[C@@H](O)CCCN6[C@@H]34)C5)nccc12 [31ALPHA-HYDROXY-32,33-DIHYDRO-8-HYDROXYMANZAMINE A]	61					inactive	inactive	
O[C@@H]1CCCN2CC[C@@H]1O[C@@]13CC[C@@H](OC[C@]45CN6CCCC/C=C\CC[C@](O)(C=C(c7nccc8c7[nH]c7ccccc78)[C@@H]4CC6)[C@H]25)[C@@H](O)CCN1[C@@H]1[C@]2(CN4CCCC/C=C\CC[C@]1(O)C=C(c1nccc5c1[nH]c1ccccc15)[C@@H]2CC4)C3 [NEO-KAULUAMINE]	44							
Oc1cccc2c1[nH]c1c(C3=C[C@]4(O)CCCCCCCCN5CC[C@H]3[C@@]3(C[C@H]6CCCCCCN6[C@@H]34)C5)nccc12	95	< 12.5				inactive	inactive	
Oc1cccc2c1[nH]c1c(C3=C[C@@]4(O)CCCCCCCCN5CC[C@@H]3[C@]3(C[C@@H]6CCCCCCN6[C@H]34)C5)nccc12 [15,16,32,33-TETRAHYDRO-8-HYDROXYMANZAMINE A]	95	< 12.5				inactive	inactive	
CC(=O)C1=C2/C=C\CCCCN2[C@H]2C3=C[C@H](c4nccc5c4[nH]c4ccccc45)[C@@H]4CCN(CCCC/C=C\CC3)C[C@]124						inactive	inactive	
O=C1CCCN2[C@@H](CC1)C[C@]13CN4CCCC/C=C\CC[C@](O)(C=C(c5nccc6c5[nH]c5c(O)cccc56)C1CC4)[C@H]23 (some centres undefined) [MANZAMINE F]	95	< 12.5				inactive	inactive	
CC(=O)C1=C2/C(C(C)=O)=C\CCCCN2[C@H]2C3=C[C@H](c4nccc5c4[nH]c4ccccc45)[C@@H]4CCN(CCCC/C=C\CC3)C[C@]124	95	< 12.5				inactive	inactive	
CC(=O)O/C(C)=C1\C[C@@H](OC(C)=O)CCCN2C1=C(C(C)=O)[C@@]13CN4CCCC/C=C\CCC(=C[C@@H](c5nccc6c5[nH]c5c(OC(C)=O)cccc56)[C@H]1CC4)[C@@H]23	95	< 12.5				inactive	inactive	
CC(=O)Oc1cccc2c1[nH]c1c([C@@H]3C=C4CC/C=C\CCCCN5CC[C@H]3[C@]3(C5)C(C(C)=O)=C5/C(C(C)=O)=C\CCCCN5[C@H]43)nccc12	95	< 12.5				inactive	inactive	
O[C@]12C=C(c3nccc4c3[nH]c3ccccc34)[C@@H]3CCN(CCCC/C=C\CC1)C[C@@]31C[C@@H]3/C=C\CCCCN3[C@H]12 [MANZAMINE A]	95	< 12.5	< 0.1	inactive				
CC(=O)Oc1cccc2c1[nH]c1c(C3=C[C@]4(OC(C)=O)CC/C=C\CCCCN5CC[C@H]3[C@@]3(C[C@H]6/C=C\CCCCN6[C@@H]34)C5)nccc12	95	< 12.5				inactive	inactive	
O[C@]12C=C(c3nccc4c3[nH]c3ccccc34)[C@@H]3CCN(CCCC/C=C\CC1)C[C@@]31C[C@@H]3CCCCCCN3[C@H]12 [32,33-DIHYDROMANZAMINE A]	95	< 12.5				inactive	inactive	
Oc1cccc2c1[nH]c1c([C@H]3C[C@@]4(O)CCCCCCCCN5CC[C@@H]3[C@]3(C[C@@H]6CCCCCCN6[C@@H]43)C5)nccc12 [10,11,15,16,32,33-HEXAHYDRO-8-HYDROXYMANZAMINE A]	95	< 12.5	1.97	inactive				
CO[C@H]1/C=C/O[C@@]2(C)Oc3c(C)c(O)c4c(O)c(c(/C=N/N5CCN(C)CC5)c(O)c4c3C2=O)NC(=O)/C(C)=C\C=C\[C@H](C)[C@H](O)[C@@H](C)[C@@H](O)[C@@H](C)[C@H](OC(C)=O)[C@@H]1C [RIFAMPIN]								100
Oc1cccc2c1[nH]c1c(C3=C[C@]4(O)CC/C=C\CCCCN5CC[C@H]3[C@@]3(C[C@H]6CC[C@H](O)CCCN6[C@@H]34)C5)nccc12 [31BETA-HYDROXY-32,33-DIHYDRO-8-HYDROXYMANZAMINE A]	100	< 6.25				inactive	inactive	
Oc1cccc2c1[nH]c1c(C3=C[C@@]4(O)CC/C=C\CCCCN5CC[C@@H]3[C@]3(CC6/C=C\CCCCN6[C@H]34)C5)nccc12 (some centres undefined)	100	< 6.25			> 20	inactive	inactive	
O[C@]12C=C(c3nccc4c3[nH]c3ccccc34)[C@@H]3CCN(CCCCCCCC1)C[C@@]31C[C@@H]3CCCCCCN3[C@H]12 [TETRAHYDROMANZAMINE A]	95	< 12.5				inactive	inactive	
